Results reported in patent publication US6348484B1, “Stereoisomeric indole compounds, process for the preparation of the same, and use thereof” (Lead Chemical Co., Ltd., priority 1997, dated 2002).

Assays:
[1] = system: lipid peroxidation of microsome in rat liver; test: Inhibitory action against lipid peroxidation of microsome in rat liver (TBA reactive substances, absorption at 535 nm); type: biochemical
Description: 10 μl of microsome fraction (protein concentration; 30-50 mg/ ml) prepared from rat liver and 10 μl of a solution of a compound to be tested in ethanol are added to 0.5 ml of 0.1 M Tris hydrochloride buffer (pH7.5) containing 14 mM MgCl2, which is mixed and preincubated at 37° C. for 5 minutes. Then, 10 μl of 0.2M adenosine diphosphate, 10 μl of 12 mM FeSO4, 40 μl of NADPH reproduced system and distilled water are added to make 1 m1, mixed and reacted at 37° C. for 10 minutes.

Compound	melting point	Inhibiting Concentration (IC50 μg/ml) ([1]; Example 7, rat liver microsome fraction, ADP/FeSO4/NADPH system, 37° C. for 10 minutes)	Inhibiting Concentration (IC50 μg/ml) ([1]; Example 8, method of Example 7, deamino form compared with synthetic (1″S, 3″S) Martefragin A)
CC[C@H](C)CCc1nc(COOCc2ccccc2)c(-c2c[nH]c3ccccc23)o1 [compound 55]	138.5 to 139.5 °C	–	–
(1″S, 3″S) Martefragin A [(1″S, 3″S)-19]	–	1.07 µg/mL	1.35 µg/mL
